Patent US20110098219A1, “System for Curing Hepatic Cancer with Leptin” (KAOHSIUNG MEDICAL UNIVERSITY, priority 2009, published 2011)

How the values were obtained:
Format in all cases: cell-based
JAK/STAT path = test: Western blotting of JAK/STAT path proteins in liver cancer cells; conditions: 10^-6 M U0126 for 4 hours, then MPA+leptin for 3 hours
Description: Please refer to FIG. 11, which is a view showing expression of JAK/STAT path after applied with a drug. As shown in the figure, the preferred embodiment analyzes related proteins of liver cancer cells through western blotting after applied with MPA+leptin for 24 hours.
(§1) Please refer to FIG. 13A and FIG. 13A, which are views showing expressions of proteins of JAK/STAT path and proteins of MAPK path after applied with a drug for a short time. As shown in the figures, the preferred embodiment processes liver cancer cells with high-dose leptin, high-dose MPA and high-dose leptin combined with high-dose MPA for 30 minutes. Then, related JAK/STAT proteins are collected for analyzing their expressions through western blotting.
Please refer to FIG. 14, which is a view showing reduced p-STAT3 degradation by suppressing the ERK1/2 activation and the PIAS3 expression. […] The preferred embodiment uses a 10^−6M p-ERK1/2 inhibitor (U0126) for 4 hours before a drug is applied; then, liver cancer cells are applied with the drug of MPA+leptin for 3 hours to collect cellular proteins for analyzing expression of related proteins through western blotting. […] As a conclusion, MPA activates ERK1/2 to indirectly induce PIAS3 expression for suppressing p-STAT3 (Tyr705) for cell apoptosis, where leptin enhances activation of ERK1/2 with MPA for increasing cell apoptosis.
(§2) Please refer to FIG. 15A to FIG. 16B, which are views showing cells containing very much leptin within; suppressed growth of the cells by using MPA; and STAT3- and MAPK-signal paths of the cells after MPA is applied. […] Then, after the cells are processed with 10^−4M MPA for 24 hours, cell growth is analyzed through XTT assay. […] Then, after the cells are processed with 10^−4 M MPA for 24 hours, JAK/STAT-related proteins are analyzed through western blotting.

MAPK path = test: Western blotting of MAPK path proteins in liver cancer cells; conditions: 10^-6 M U0126 for 4 hours, then MPA+leptin for 3 hours
Description: Please refer to FIG. 12, which is a view showing expression of MAPK path after applied with a drug. As shown in the figure, after proteins for the JAK2/STAT3 path are suppressed, the preferred embodiment analyzes expression of the proteins through western blotting.
as §1
Please refer to FIG. 14, which is a view showing reduced p-STAT3 degradation by suppressing the ERK1/2 activation and the PIAS3 expression. […]
as §2

[1] = test system: liver cancer cells (hepatocellular carcinoma cell line); test: XTT assay, growth of liver cancer cells; conditions: high-dose leptin (100 ng), 24 hours
Description: Please refer to FIG. 2, which is a view showing leptin's effect on growth of liver cancer cells. As shown in the figure, for acquiring effect of leptin on liver cancer cells, the preferred embodiment uses leptin having different doses, where the high-dose leptin has 100 nano-grams (ng) and the low-dose leptin has 10 ng. The 10 ng leptin is conformed to the physiological concentration of normal human body for observing effect of leptin on the cells. In the other hand, the 100 ng leptin is used to show whether a higher levels of leptin obtains a higher effect on the cells.
Please refer to FIG. 3, which is a view showing MPA's effect on growth of liver cancer cells. As shown in the figure, the preferred embodiment applies MPA having different doses to liver cancer cells.
Please refer to FIG. 4, which is a view showing effect of MPA+leptin on growth of liver cancer cells. As shown in the figure, the preferred embodiment applies MPA combined with leptin to liver cancer cells, where MPA has different doses and leptin has different doses.
Please refer to FIG. 9, which is a view showing reduced effect of MPA+leptin by suppressing leptin receptor expression. As shown in the figure, a 20 nano-moles (nM) of leptin receptor, siRNA, is transferred to cells to be cultured a day and is cultured in a serum-free medium for the next day. Then, the cells are processed with MPA+leptin for 24 hours to be analyzed through XTT assay. […] Thus, it is confirmed that leptin enhances MPA's suppression on the cells through the leptin receptor.
Please refer to FIG. 10A and FIG. 10B, which are views showing apoptosis of cells on increasing expression of leptin receptor and expression of progesterone receptor respectively. As shown in the figures, the preferred embodiment makes ob-Rb plasmid transfected to cells to be cultured a day and is cultured in a serum-free medium for the next day. Then, the cells are processed with MPA+leptin for 24 hours to be analyzed through XTT assay. […] Besides, the long-form Ob-R enhances expression of the progesterone receptor. Again, the preferred embodiment makes PgR plasmid transfected to cells to be cultured a day and is cultured in a serum-free medium for the next day. Then, the cells are processed with MPA+leptin for 24 hours to be analyzed through XTT assay.
Please refer to FIG. 15A to FIG. 16B, which are views showing cells containing very much leptin within; suppressed growth of the cells by using MPA; and STAT3- and MAPK-signal paths of the cells after MPA is applied. As shown in the figures, while leptin is added from outside in state 13 to suppress liver cancer cells with MPA+leptin, the preferred embodiment here transfers expression plasmid of leptin (pcLeptin) to liver cancer cells to be cultured for a day; and a serum-free medium is used for the next day. Then, after the cells are processed with 10^−4M MPA for 24 hours, cell growth is analyzed through XTT assay. In FIG. 15A, leptin gene is transferred to cells for a short time for obtaining very much leptin within the cells by themselves. After applying MPA to the cells for 24 hours, it is confirmed that MPA's suppression on liver cancer cells is enhanced by a lot of leptin self-generated within the cells. Moreover, after obtaining a lot of leptin, medium is collected for immunoprecipitation and further western blotting. […] Then, after the cells are processed with 10^−4 M MPA for 24 hours, JAK/STAT-related proteins are analyzed through western blotting.

[2] = test system: epithelial cell line of normal liver (THLE-3); test: XTT assay, survival of normal liver epithelial cell line; conditions: THLE-3, FIG. 17A
Description: (§3) Please refer to FIG. 17A to FIG. 18B, which are views showing epithelial cell line of normal liver treated with MPA+leptin for 24 hours and 48 hours respectively; and views showing STAT3- and MAPK-related signal paths after treating cell line of normal liver with MPA+leptin. As shown in the figures, after epithelial cell line of normal liver (THLE-3) is applied with MPA+leptin for […], MPA+leptin's effect on cell growth (i.e. survival rate) is analyzed through XTT assay. […] Besides, in FIG. 18A and FIG. 18B, protein expressions for STAT- and MAPK-related signal paths are analyzed.

[3] = test system: STAT- and MAPK-related signal paths; test: Protein expression of STAT- and MAPK-related signal paths in normal liver cell line
Description: as §3

Row | Compound | expression of p-STAT3 (Tyr705) (JAK/STAT path) | PIAS3 (MAPK path) | phosphorylation of ERK1/2 (MAPK path) | effect on growth of liver cancer cells [1] | effect on survival rate of, and poisoning of, normal liver epithelial cells [2] | effect on STAT- and MAPK-related signal proteins [3]
1 | N#CC(=C(/N)Sc1ccccc1N)/C(C#N)=C(\N)Sc1ccccc1N [U0126] | suppressed | not induced | suppressed | – | – | –
2 | leptin: hormone of single-chain protein; adipokine generated by adipocyte | – | – | – | no obvious effect | no obvious effect | no obvious effect
